Data from paper PMC12703741, “Light-Activated Metal-Dependent Protein Degradation: A Heterobifunctional Ruthenium(II) Photosensitizer Targeting New Delhi Metallo-β-lactamase 1” (Journal of the American Chemical Society, 2025).
Like-named read-outs stand apart in the source and are kept apart here.

Tests used:
[1] = molecular target: T1, NDM-1 (Klebsiella pneumoniae, UniProt C7C422); type: biochemical; settings: mixture of NDM-1 and BSA, 0-1000 μM, light 450 nm, 20 J cm^-2
Method: 1.8 Protein degradation via SDS-PAGE […]
were made at 10 mM in DMSO and then diluted to the appropriate concentration (1 mM – 10 µM) in 50 mM HEPES pH 7.5. The enzyme stocks (10 µM) were made up in 50 mM HEPES pH 7.5. The compound and enzyme stocks were mixed 1:1 and then pre -incubated for 10 min […]
‘light’ conditions the samples were transferred to a 96 well plate to provide irradiation. For a […]
(208 s, 96 mW cm-2). For a dose of 60 J cm-2 the plate was irradiated immediately (624 s, 96 […]
An aliquot of each sample was mixed with SDS-sample buffer (NuPAGE® LDS Sample buffer 4x) and heated to 95°C for 3 min. The samples were loaded on to the gel (NuPAGE® 4-12% Bis-tris gel) and run at 200V/125 mA for 30 min (1 gel per Gel box) or 60 min (2 gels per Gel box). SDS-PAGE gels were imaged using a Cytiva Amersham ImageQuant™ 800.
Densitometry of gel bands was measured and processed using Fiji (ImageJ).
1.8.3 BSA+NDM-1 selectivity experiment […]
nm, 20 J cm-2). Lane 1: Ladder; Lane 2: NDM-1 – no compound control (dark); Lane 3: BSA – no compound control (dark); Lane 4: NDM-1 + BSA - no compound control (dark); Lane 5: NDM-1 + BSA + 1 eq. compound (dark); Lane 6: NDM-1 + BSA + 10 eq. compound (dark); Lane 7: NDM-1 + BSA + 100 eq. compound (dark); Lane 8: NDM-1 + BSA - no compound control (light); Lane 9: NDM-1 + BSA + 1 eq. compound (light); Lane 10: NDM-1 + BSA + 10 eq. compound (light); Lane 11: NDM-1 + BSA + 100 eq. compound (light). […]
the dark (left) and under light irradiation (450 nm, 20 J cm-2).

[2] = test system: E. coli NDM-1; settings: 320 μM, 1 h
Method: (§1) In parallel, a control set was incubated without compounds for 50 min, followed by incubation with 75 μM meropenem trihydrate for 10 min. Cells were then pelleted, washed, resuspended in water, lysed, and clarified before LC-MS analysis.
(§2) 1.12 LC-MS accumulation assay
(§3) 1.12.1 Bacterial Strains and Growth Conditions:
(§4) Accumulation assay was performed two E. coli K-12 MG1655 strains transfected with pSU18 vector containing NDM-1 expression or an empty vector control. Cell growth was performed in Luria-Bertani (LB) broth (NaCl 10g/L, K2HPO4 6.3 g/L, KH2PO4 1.8 g/L, sodium citrate […]
(§5) 1.12.2 Preparation of Accumulation Assay Samples for LC-MS Analysis:
(§6) Assay was adapted from the work of Geddes et al. and Widya et al.9–11 E. coli MG1655 pSU18 NDM-1 and pSU18 Empty were grown from single colonies at 37 °C with aeration, while shaking at 180 rpm for 18 hours. The overnight suspensions were subcultured (1:100) in fresh LB and incubated to yield an OD600 of 0.55-0.60. The were harvested and pelleted at 3500 × g for 15 minutes at 4 °C. The pellets were washed with Meuller -Hinton II (MHII) broth and pelleted again under the same conditions. The pellets were resuspended in a n adjusted volume of fresh MHII to achieve an OD 600 ≈ 10.0. Shielded from ambient light, cells were incubated with 320 μM of metal complex for 1 hour while shaking at 180 rpm. Separately, another set of cells was incubated under identical conditions without any added metal complex. Cells […]
(§7) incubated with metal complex were maintained incubating under the same conditions for an additional 10 minutes, while the second set of cells was incubated with 75 μM of meropenem trihydrate for 10 minutes. After treatment, 10 μL of each cell suspension was taken and dilution 1:10 PBSA for OD600 viability analysis. A 150 μL aliquot of each cell suspension was layered onto 150 μL of cold silicone oil mixture (1:9, v/v AR20:High temperature silicone oil) and centrifuged at 3500 × g for 1 hour at 4 °C. The aqu eous and oil supernatant were carefully aspirated to isolate the cell pellets, which were resuspended in 50 μL of water and transferred to a fresh microplate. For lysis, a 1:1 (v/v) mixture of acetonitrile and methanol was added to each sample, and the sam ples were freeze thawed at -80 °C for approximately 18 hours.
(§8) Thawed samples were clarified by two rounds of centrifugation at 3500 × g for 1 hour at 4 °C, […]
(§9) External calibration curves were prepared by mixing compound at increasing concentration with extracted cell lysate (prepared in parallel to analyte containing samples) in concentrations […]
(§10) nM were also prepared to assess quantitative accuracy. Samples were submitted to LCMS analysis as biological triplicate using a single calibration curve. […]
(§11) was spiked into each calibration and analyte sampl e as an internal standard.

[3] = test system: E. coli empty; settings: 320 μM, 1 h
Method: as §1, §2, §3, §4, §5, §6, §7, §8, §9, §10, §11

[4] = Luminescence lifetime of the excited state; type: physicochemical; settings: PBS
Excerpt: 1.2.6 Luminescence lifetime
at room temperature with a Horiba Scientific FL-1065 (FluoroLog) using a pulse laser (486
nm) as the excitation source.
Lifetime of excited state (ns)

[5] = 1O2 quantum yield by DPBF photooxidation; type: physicochemical; settings: oxygenated methanol, 450 nm
Method: To quantify the generation of ^1O2 produced by the complexes, 1,3-diphenylisobenzofuran (DPBF) was used as a ^1O2 scavenger.
The 1O2 quantum yields were determined by tracking the photooxidation of 1,3-
fully aerated and exposed to LED irradiation at 450 nm (1 3 mW cm−2).
reaction mixture at 411 nm was recorded at one-second intervals.
cumulative absorbance changes at 411 nm versus cumulative irradiation time.

[6] = molecular target: T1, NDM-1
Method: 1.4.1 Differential Scanning Fluorimetry (DSF)
DSF was performed using the Applied Biosystems QuantStudio 5 thermal cycler (Thermo
Fisher Scientific). Results were analysed and Tm determined with the Applied Biosystems
Protein Thermal Shift Software v1.4 and Tm values determined by the software. DSF was
conducted in sealed MicroAmp Optical 384-Well Reaction Plates (Thermo Fisher Scientific).
at a temperature ramp rate of 0.03 °C/s. For compound-protein interaction studies, a final
containing 5X SYPRO Orange (Thermo Fisher Scientific), 50 mM HEPES and 5%(v/v)
DMSO-d6. The final reaction volume was 20 µL per well. All DMSO compound stocks used
for DSF experiments were freshly prepared from solid stocks. All DSF measurements were
carried out in triplicate and the Tm reported is the mean value and the error is the standard
deviation. For all compounds tested, a no protein control run was included to see potential
changes in fluorescence resulting from a compound-dye interaction.

[7] = molecular target: T1, NDM-1; remark: listed apart in the source
[8] = test system: E. coli empty; settings: dark and light samples equivalent
[9] = test system: HCT116
[10] = test system: HaCaT
[11] = test system: HeLa
[12] = test system: HepG2
[13] = test system: hTERT RPE-1
[14] = test system: seven mammalian cell lines; settings: panel of seven mammalian cell lines including HepG2
[15] = Chromatographic LogD measurement; settings: pH 7.4
Method: ChromLogD measurements were adapted from a previously reported procedure.3 The reversed
phase HPLC measurements were measured using an Agilent 1100 Series, equipped with an
Eclipse Plus C18 column 4.6 x 50 mm, using a gradient of 50 mM ammonium acetate/CH3CN
0 – 100% over 10 min. The mobile phase was adjusted to pH = 7.4 using concentrated sodium
The retention times (log k’) of seven commercially available compounds which cover the log
D range from -0.02 to 3.18 (theophylline, 5-phenyl-1H-tetrazole, benzimidazole, colchicine,
acetophenone, indole, propiophenone, butyrophenone, and benzophenone) were calculated
using the below equation, where tR is the retention time of the compound and t0 is the column
dead time, measured by injecting uracil (0.853 min).
The average retention times (tR) of two consecutive injections of sample were used to calculate
the log k’ values, which were then used to create the standard curve (Figure S1).

T1 sequence (C7C422 31-270 limits assumed): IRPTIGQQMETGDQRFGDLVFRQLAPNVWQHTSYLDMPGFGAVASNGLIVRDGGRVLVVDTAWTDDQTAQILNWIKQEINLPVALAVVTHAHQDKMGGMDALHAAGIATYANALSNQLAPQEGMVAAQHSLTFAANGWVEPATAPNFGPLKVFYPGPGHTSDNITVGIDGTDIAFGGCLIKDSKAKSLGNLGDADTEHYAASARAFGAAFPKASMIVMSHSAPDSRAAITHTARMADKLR

## F[P-](F)(F)(F)(F)F.F[P-](F)(F)(F)(F)F.[Ru+2].c1ccc(-c2ccccn2)nc1.c1ccc(-c2ccccn2)nc1.c1ccc(-n2cnc3c4cccnc4c4ncccc4c32)cc1 [Ru2, [Ru(2,2'-bipyridine)2(1-phenyl-imidazo[4,5,f][1,10]phenanthroline)](PF6)2]
[1]
  Degradation of NDM-1 vs BSA (band intensity): both NDM-1 and BSA band intensities were diminished
[2]
  Accumulation: 494 nM/OD600
[3]
  Accumulation: 405 nM/OD600
[4]
  Luminescence lifetime of excited state: 463 ns
[5]
  1O2 quantum yield (ΦΔ): 0.87
[6]; compound 4 μM
  Change in melting temperature (ΔT) of NDM-1: 0.0 °C
[6]; compound 16 μM
  Change in melting temperature (ΔT) of NDM-1: 0.0 °C
[6]; compound 63 μM
  Change in melting temperature (ΔT) of NDM-1: 0.0 °C
[6]; in words
  Effect on melting temperature of NDM-1: no effect
[7]; 450 nm, 20 J cm^-2
  Fold difference in IC50(light) between Ru1 and untargeted control Ru2: approximately 25 fold
[7]; read-out: IC50(light), recombinant NDM-1, nitrocefin, light 450 nm, 20 J cm^-2
  IC50: 5.6 ± 0.5 µM
[7]; recombinant NDM-1, nitrocefin, dark
  IC50(dark): no inhibition
[8]
  MIC: >160 µM
[9]; HCT116, 24 h
  LD50: > 50 µM
[9]; HCT116, 48 h
  LD50: > 50 µM
[10]; 24 h
  LD50: > 50 µM
[10]; 48 h
  LD50: > 50 µM
[11]; 24 h
  LD50: > 50 µM
[11]; 48 h
  LD50: > 50 µM
[12]; HepG2, 24 h
  LD50: > 50 µM
[12]; HepG2, 48 h
  LD50: > 50 µM
[13]; RPE1, 24 h
  LD50: > 50 µM
[13]; RPE1, 48 h
  LD50: > 50 µM
[14]
  Cytotoxicity (no cytotoxicity up to): > 50 µM
[15]
  ChromLogD: 1.21
